The results in this text go back to publication PMC5635695, “More than Enzymes That Make or Break Cyclic Di-GMP—Local Signaling in the Interactome of GGDEF/EAL Domain Proteins of Escherichia coli” (mBio, 2017).

The assay concerns the target T1, CdgI GGDEF domain (GGDEF^CdgI) (Escherichia coli, UniProt P76236).
T1 construct: isolated cytoplasmic GGDEF domain (degenerate A-site, intact I-site), N-terminal MASE4 membrane domain removed; N-terminal His6 tag kept; pQE30xa in E. coli Fi8202
Kind of assay: UV cross-linking with [alpha-32P]c-di-GMP, SDS-PAGE. The assay is classed as binding. The settings on record: 42 nM radiolabelled c-di-GMP, competition with unlabelled c-di-GMP; labelled compound.

T1 sequence (P76236 315-491): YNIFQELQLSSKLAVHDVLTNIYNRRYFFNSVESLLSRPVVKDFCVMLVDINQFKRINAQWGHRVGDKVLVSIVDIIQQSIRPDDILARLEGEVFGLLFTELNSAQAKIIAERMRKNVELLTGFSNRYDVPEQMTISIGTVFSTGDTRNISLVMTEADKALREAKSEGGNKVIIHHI

As to `Nc1nc2c(ncn2[C@@H]2O[C@@H]3COP(=O)(O)O[C@H]4[C@@H](O)[C@H](n5cnc6c(=O)[nH]c(N)nc65)O[C@@H]4COP(=O)(O)O[C@H]3[C@H]2O)c(=O)[nH]1` [c-di-GMP], the “UV cross-linking with [alpha-32P]c-di-GMP, SDS-PAGE” value is recorded as “We observed that purified CdgI could indeed bind c-di-GMP”.
